# Laboratory results from ChEMBL document CHEMBL1133212, “An enantioselective synthesis and biobehavioral evaluation of 7-fluoro-3-(p-fluorophenyl)-2-propyltropanes” (Bioorg Med Chem Lett, 2000).
# Columns and labels:
# [1] = target: T1, Sodium-dependent dopamine transporter (Rattus norvegicus, UniProt P23977); experiment: Compound was tested for its ability to inhibit high affinity uptake of [3H]DA into rat striatal membrane; parameters: species or system Striatum
# [2] = target: T1, Sodium-dependent dopamine transporter; experiment: ability to displace [3H]- Mazindol binding to cocaine binding sites on Dopamine transporter of rat striatal membranes; parameters: species or system Striatum, Membrane
# [3] = target: Norepinephrine transporter (Rattus norvegicus, UniProt Q9WTR4); experiment: Compound was tested for its ability to inhibit high-affinity uptake of [3H]NE into parietal and occipital cortex in rat
# [4] = target: Sodium-dependent serotonin transporter (Rattus norvegicus, UniProt P31652); experiment: Compound was tested for its ability to inhibit high affinity uptake of [3H]5-HT into mid brain nerve endings (synaptosomes) in rat; assay type: subcellular
# [5] = system: Rattus norvegicus; experiment: Percent reduction in cocaine induced reward enhancement after administration of compound at 5 mg/kg or 10 mg/kg combined with 10 mg/kg of cocaine intraperitoneally in rats; assay type: functional
# [6] = target: T1, Sodium-dependent dopamine transporter; experiment: Binding affinity to a single, sodium-dependent site on the Dopamine transporter in rat striatal membranes; assay type: cell membranes, Striatum, Membrane
# T1 sequence (P23977 whole entry): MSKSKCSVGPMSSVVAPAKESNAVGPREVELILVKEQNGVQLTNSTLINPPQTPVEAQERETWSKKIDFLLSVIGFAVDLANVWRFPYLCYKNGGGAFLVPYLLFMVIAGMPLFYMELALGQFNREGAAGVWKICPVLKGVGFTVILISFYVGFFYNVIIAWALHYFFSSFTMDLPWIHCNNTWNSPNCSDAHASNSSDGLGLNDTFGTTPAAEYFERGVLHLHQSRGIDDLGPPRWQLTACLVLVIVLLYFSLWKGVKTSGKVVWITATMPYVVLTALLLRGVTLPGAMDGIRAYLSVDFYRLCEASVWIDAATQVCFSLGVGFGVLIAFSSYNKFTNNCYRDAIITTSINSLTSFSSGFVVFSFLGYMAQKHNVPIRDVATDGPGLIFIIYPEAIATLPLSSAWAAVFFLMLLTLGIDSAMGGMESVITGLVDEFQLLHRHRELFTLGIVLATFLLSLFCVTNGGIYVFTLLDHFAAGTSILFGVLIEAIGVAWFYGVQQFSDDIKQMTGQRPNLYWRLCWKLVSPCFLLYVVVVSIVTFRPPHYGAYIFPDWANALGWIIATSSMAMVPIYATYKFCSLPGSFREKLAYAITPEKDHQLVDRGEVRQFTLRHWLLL
# Sequence of Norepinephrine transporter (Q9WTR4 whole entry): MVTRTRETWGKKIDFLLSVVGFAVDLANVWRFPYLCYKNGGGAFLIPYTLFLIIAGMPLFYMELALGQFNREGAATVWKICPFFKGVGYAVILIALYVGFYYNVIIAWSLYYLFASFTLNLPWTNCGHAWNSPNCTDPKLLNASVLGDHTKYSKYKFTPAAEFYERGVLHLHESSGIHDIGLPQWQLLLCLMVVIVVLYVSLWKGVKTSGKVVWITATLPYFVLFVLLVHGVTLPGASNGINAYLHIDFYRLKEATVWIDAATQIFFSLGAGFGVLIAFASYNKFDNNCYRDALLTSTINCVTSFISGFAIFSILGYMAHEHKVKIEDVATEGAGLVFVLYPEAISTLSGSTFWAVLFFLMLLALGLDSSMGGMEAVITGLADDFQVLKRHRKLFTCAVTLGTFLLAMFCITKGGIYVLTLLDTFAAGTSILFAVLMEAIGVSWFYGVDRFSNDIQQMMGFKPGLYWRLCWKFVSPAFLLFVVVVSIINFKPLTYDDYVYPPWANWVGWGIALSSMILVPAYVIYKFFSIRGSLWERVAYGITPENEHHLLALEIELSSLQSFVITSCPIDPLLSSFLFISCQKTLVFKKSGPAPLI
# Sequence of Sodium-dependent serotonin transporter (P31652 whole entry): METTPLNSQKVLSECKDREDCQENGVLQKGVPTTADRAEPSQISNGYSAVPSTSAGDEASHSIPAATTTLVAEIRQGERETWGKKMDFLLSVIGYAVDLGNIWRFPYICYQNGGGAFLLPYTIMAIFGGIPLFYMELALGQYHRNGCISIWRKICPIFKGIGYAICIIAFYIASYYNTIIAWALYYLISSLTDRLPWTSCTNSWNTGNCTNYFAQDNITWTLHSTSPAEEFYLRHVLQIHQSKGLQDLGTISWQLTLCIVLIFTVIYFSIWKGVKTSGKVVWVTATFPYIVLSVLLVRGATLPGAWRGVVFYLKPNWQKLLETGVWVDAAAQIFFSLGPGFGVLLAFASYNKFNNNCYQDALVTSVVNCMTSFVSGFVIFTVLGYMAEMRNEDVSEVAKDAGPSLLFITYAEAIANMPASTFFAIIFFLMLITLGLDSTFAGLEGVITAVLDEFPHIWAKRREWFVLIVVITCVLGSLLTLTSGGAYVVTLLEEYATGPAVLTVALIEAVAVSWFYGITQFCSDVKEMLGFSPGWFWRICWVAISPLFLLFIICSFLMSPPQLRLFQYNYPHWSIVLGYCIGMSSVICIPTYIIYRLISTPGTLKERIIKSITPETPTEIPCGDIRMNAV
Structure (SMILES),Ki [1] [nM],Ki [2] [nM],Ki [3] [nM],Ki [4] [nM],Reduction [5] [%],Kd [6] [nM]
CCCC1C(c2ccc(F)cc2)CC2CC(F)(F)C1N2C (stereo not drawn),1450,860,3790,7910,,
CCCC1C(c2ccc(F)cc2)CC2C[C@H](F)C1N2C (stereo partly drawn),49,,52,561,60,
CCCC1C(c2ccc(F)cc2)CC2C[C@@H](F)C1N2C (stereo partly drawn),304,1150,126,1250,,
OC1(c2ccc(Cl)cc2)c2ccccc2C2=NCCN21 (stereo not drawn) [MAZINDOL],,,,,,8.63
